Assay results reported in patent US20240025919A1, “AZA-TETRACYCLIC OXAZEPINE COMPOUNDS AND USES THEREOF” (Genentech, Inc., priority 2022, published 2024).
Read-outs that look alike come from different tables or passages of the source.

What was measured:
KRAS G12D = KRAS G12D (Homo sapiens (Human), UniProt P01116, G12D); experiment: KRAS G12D LoEnz Biochemical Assay, BODIPY-GDP Exchange TR-FRET (SOS1-mediated nucleotide exchange); details: read-out: KRas (G12D) GDP HTRF IC50
Experimental: Example 500: KRAS G12D LoEnz Biochemical Assay, BODIPY-GDP Exchange TR-FRET. Biochemical compound potencies are assessed by evaluating inhibition of SOS1I-mediated nucleotide exchange in KRAS G121D. In this assay, the SOS1-promoted exchange of fluorescently-labeled GDP (BOPIDY-GDP) is monitored by time-resolved fluorescence resonance energy transfer (TR-FRET). Compounds solubilized in DMS0 are dispensed as concentration series into 384-well white assay plates. A preformed complex of biotin-tagged recombinant human KRAS (0.06 nM mutant G1 2D) and 0.06 nM terbium-labeled streptavidin (CisBIO) prepared in 10 uL/well assay buffer (20 mM HEPES, pH 7.5, 50 mM NaCl, 10 mMMMgCl2, 0.0100 Tween-20 and 1 mM dithiothreitol) is added and allowed to incubate for 10-minutes at room temperature. The reaction is initiated with the addition of 5 uL 300 nM recombinant human SOS1 and 300 nM BODIPY-GDP in assay buffer. After a 120-minute incubation, the fluorescence is measured with excitation at 337 nm and emission at 490 and 520 nm. The TR-FRET ratio is determined as the fluorescence at 520 nm divided by the fluorescence at 490 nm multiplied by 10,000. The results are normalized to percent inhibition based on control samples: DMSO (0% inhibition) and control compound at a concentration that inhibits completely (100% inhibition). The normalized TR-FRET results are plotted against compound concentration, and the data are fit to a 4-parameter Hill equation to determine the IC50 values.

KRAS WT = KRAS WT (Homo sapiens (Human), UniProt P01116); experiment: KRAS WT Biochemical Assay, BODIPY-GDP Exchange TR-FRET (Example 501; 3 nM KRAS WT, 3 nM SOS1, 60-minute incubation)
Experimental: Example 501: KRAS WT Biochemical Assay, BODIPY-GDP Exchange TR-FRET. Biochemical compound potencies are assessed by evaluating inhibition of SOS1-mediated nucleotide exchange in KRAS WT. In this assay, the SOS1-promoted exchange of fluorescently-labeled GDP (BOPIDY-GDP) is monitored by time-resolved fluorescence resonance energy transfer (TR-FRET). Compounds solubilized in DMSO are dispensed as concentration series into 384-well white assay plates, and 5 uL assay buffer (20 mM HEPES, pH 7.5, 50 mM NaCl, 10 mM MgCl2, 0.01% Tween-20 and 1 mM dithiothreitol) is added just prior to the start of the assay. A preformed complex of 3 nM biotin-tagged recombinant human KRAS WT and 0.3 nM terbium-labeled streptavidin (CisBIO) prepared in 5 uL/well assay buffer is added and allowed to incubate for 10-minutes at room temperature. The reaction is initiated with the addition of 5 uL 3 nM recombinant human SOS1 and 300 nM BODIPY-GDP in assay buffer. After a 60-minute incubation, the fluorescence is measured with excitation at 337 nm and emission at 490 and 520 nm. The TR-FRET ratio is determined as the fluorescence at 520 nm divided by the fluorescence at 490 nm multiplied by 10,000. The results are normalized to percent inhibition based on control samples: DMSO (0% inhibition) and control compound at a concentration that inhibits completely (100% inhibition). The normalized TR-FRET results are plotted against compound concentration, and the data are fit to a 4-parameter Hill equation to determine the IC50 values.

[1] = read-out: KRas(wt) GDP HTRF IC50

Chain of KRAS WT (P01116-2 other isoform, or with tags, fused parts or gaps): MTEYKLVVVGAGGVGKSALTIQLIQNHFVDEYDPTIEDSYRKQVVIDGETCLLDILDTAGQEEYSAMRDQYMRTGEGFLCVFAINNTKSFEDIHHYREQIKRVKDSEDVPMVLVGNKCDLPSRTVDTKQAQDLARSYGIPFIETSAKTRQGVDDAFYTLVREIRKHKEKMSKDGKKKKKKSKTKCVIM
Chain of KRAS G12D (P01116-2 other isoform, or with tags, fused parts or gaps G12D): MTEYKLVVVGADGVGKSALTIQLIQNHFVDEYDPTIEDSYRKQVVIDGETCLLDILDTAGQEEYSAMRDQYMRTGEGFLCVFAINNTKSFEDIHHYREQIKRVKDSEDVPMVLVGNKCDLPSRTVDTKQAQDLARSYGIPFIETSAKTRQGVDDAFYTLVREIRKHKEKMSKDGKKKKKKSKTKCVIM

Cn1ncc2ccc(F)c(-c3nc4c5c(nc(OC[C@@]67CCCN6C[C@H](F)C7)nc5c3F)N3C[C@H]5CC[C@H](N5)[C@H]3CO4)c21 [Compound 4, (5aS,6S,9R)-1-fluoro-2-(6-fluoro-1-methyl-1H-indazol-7-yl)-12-(((2R,7aS)-2-fluorotetrahydro-1H-pyrrolizin-7a(5H)-yl)methoxy)-5a,6,7,8,9,10-hexahydro-5H-4-oxa-3,10a,11,13,14-pentaaza-6,9-methanonaphtho[1,8-ab]heptalene]
IC50 (KRAS G12D): 899 nM | IC50 (KRAS WT; [1]): 9570 nM

Cc1nc(N)cc(-c2nc3c4c(nc(OCC5(CN6C[C@H]7C[C@@H]6CO7)CC5)nc4c2F)N2C[C@H]4CC[C@H](N4)[C@H]2[C@H](C)O3)c1C(F)(F)F [Compound 209, 4-((5S,5aS,6S,9R)-12-((1-(((1R,4R)-2-Oxa-5-azabicyclo[2.2.1]heptan-5-yl)methyl)cyclopropyl)methoxy)-1-fluoro-5-methyl-5a,6,7,8,9,10-hexahydro-5H-4-oxa-3,10a,11,13,14-pentaaza-6,9-methanonaphtho[1,8-ab]heptalene-2-yl)-6-methyl-5-(trifluoromethyl)pyridin-2-amine]
IC50 (KRAS G12D): 0.24 nM | IC50 (KRAS WT; read-out: KRas HTRF IC50): 18.5 nM

C#Cc1cccc2cc(O)cc(-c3nc4c5c(nc(OC[C@@]67CCCN6C[C@H](F)C7)nc5c3F)N3C[C@H]5CC[C@H](CN5CC5COC5)[C@H]3CO4)c12 [Compound 51, 5-ethynyl-4-((5aS,6R,9R)-1-fluoro-12-(((2R,7aS)-2-fluorotetrahydro-1H-pyrrolizin-7a(5H)-yl)methoxy)-14-(oxetan-3-ylmethyl)-5a,6,7,8,9,10-hexahydro-5H-4-oxa-3,10a,11,13,14-pentaaza-6,9-ethanonaphtho[1,8-ab]heptalen-2-yl)naphthalen-2-ol]
IC50 (KRAS G12D): 0.3 nM | IC50 (KRAS WT; [1]): 5.6 nM

Cc1nc(N)cc(-c2nc3c4c(nc(OC[C@@]56CCCN5C[C@H](F)C6)nc4c2F)N2C[C@H]4CC[C@H](N4)[C@H]2[C@H](C)O3)c1OC(F)F [Compound 188, 5-(Difluoromethoxy)-4-((5S,5aS,6S,9R)-1-fluoro-12-(((2R,7aS)-2-fluorotetrahydro-1H-pyrrolizin-7a(5H)-yl)methoxy)-5-methyl-5a,6,7,8,9,10-hexahydro-5H-4-oxa-3,10a,11,13,14-pentaaza-6,9-methanonaphtho[1,8-ab]heptalene-2-yl)-6-methylpyridin-2-amine]
IC50 (KRAS G12D): 1.26 nM | IC50 (KRAS WT; read-out: KRas HTRF IC50): 225 nM

C[C@@H]1Oc2nc(-c3cccc4cccc(Cl)c34)c(F)c3nc(OC[C@@]45CCCN4C[C@H](F)C5)nc(c23)N2C[C@H]3CC[C@H](N3)[C@@H]12 [Compound 8, (5S,5aS,6S,9R)-2-(8-chloronaphthalen-1-yl)-1-fluoro-12-(((2R,7aS)-2-fluorotetrahydro-1H-pyrrolizin-7a(5H)-yl)methoxy)-5-methyl-5a,6,7,8,9,10-hexahydro-5H-4-oxa-3,10a,11,13,14-pentaaza-6,9-methanonaphtho[1,8-ab]heptalene]
IC50 (KRAS G12D): 1.78 nM | IC50 (KRAS WT; [1]): 146 nM

Cc1c(F)c(N)cc(-c2nc3c4c(nc(OC[C@H]5CC[C@@H]6C(=O)N(C)CCN56)nc4c2F)N2C[C@H]4CC[C@H](N4)[C@H]2[C@H](C)O3)c1C(F)(F)F (relative stereo) [Compound 123, 6-((((5S,5aS,6S,9R)-2-(5-Amino-4-fluoro-3-methyl-2-(trifluoromethyl)phenyl)-1-fluoro-5-methyl-5a,6,7,8,9,10-hexahydro-5H-4-oxa-3,10a,11,13,14-pentaaza-6,9-methanonaphtho[1,8-ab]heptalen-12-yl)oxy)methyl)-2-methylhexahydropyrrolo[1,2-a]pyrazin-1(2H)-one]
IC50 (KRAS G12D): 0.7 nM

Cc1nc(N)cc(-c2nc3c4c(nc(OCC5(CN6CC7CCC6CO7)CC5)nc4c2F)N2C[C@H]4CC[C@H](N4)[C@H]2[C@H](C)O3)c1C(F)(F)F [Compound 211, 4-((5S,5aS,6S,9R)-12-((1-((2-Oxa-5-azabicyclo[2.2.2]octan-5-yl)methyl)cyclopropyl)methoxy)-1-fluoro-5-methyl-5°,6,7,8,9,10-hexahydro-5H-4-oxa-3,10°,11,13,14-pentaaza-6,9-methanonaphtho[1,8-ab]heptalen-2-yl)-6-methyl-5-(trifluoromethyl)pyridin-2-amine]
IC50 (KRAS G12D): 0.21 nM | IC50 (KRAS WT; read-out: KRas HTRF IC50): 17.8 nM

C[C@@H]1Oc2nc(-c3cc(N)cc(F)c3C(F)(F)F)c(F)c3nc(OC[C@H]4CC[C@@H]5COC(C)(C)CN45)nc(c23)N2C[C@H]3CC[C@H](N3)[C@@H]12 (relative stereo) [Compound 125, 3-((5S,5aS,6S,9R)-12-((3,3-dimethylhexahydro-1H-pyrrolo[2,1-c][1,4]oxazin-6-yl)methoxy)-1-fluoro-5-methyl-5a,6,7,8,9,10-hexahydro-5H-4-oxa-3,10a,11,13,14-pentaaza-6,9-methanonaphtho[1,8-ab]heptalen-2-yl)-5-fluoro-4-(trifluoromethyl)aniline]
IC50 (KRAS G12D): 0.23 nM

Cc1nc(N)cc(-c2nc3c4c(nc(OCC5(CN6CC7COCC(C6)C7(F)F)CC5)nc4c2F)N2C[C@H]4CC[C@H](N4)[C@H]2[C@H](C)O3)c1C(F)(F)F [Compound 266, 4-((5S,5aS,6S,9R)-12-((1-((9,9-difluoro-3-oxa-7-azabicyclo[3.3.1]nonon-7-yl)methyl)cyclopropyl)methoxy)-1-fluoro-5-methyl-5a,6,7,8,9,10-hexahydro-5H-4-oxa-3,10a,11,13,14-pentaaza-6,9-methanonaphtho[1,8-ab]heptalene-2-yl)-6-methyl-5-(trifluoromethyl)pyridin-2-amine]
IC50 (KRAS WT; read-out: KRas HTRF IC50): 1100 nM

Cc1c(Cl)c(N)cc(-c2nc3c4c(nc(OC[C@@]56CCCN5C[C@H](F)C6)nc4c2F)N2C[C@H]4CC[C@H](N4)[C@H]2[C@H](C)O3)c1C(F)(F)F (single isomer, unassigned) [Compound 200]
IC50 (KRAS G12D): 0.1 nM

Cc1cc(N)c(Cl)c(-c2nc3c4c(nc(OC[C@@]56CCCN5C[C@H](F)C6)nc4c2F)N2C[C@H]4CC[C@H](N4)[C@H]2[C@H](C)O3)c1C(F)(F)F [Compound 199, 2-Chloro-3-((5S,5aS,6S,9R)-1-fluoro-12-(((2R,7aS)-2-fluorotetrahydro-1H-pyrrolizin-7a(5H)-yl)methoxy)-5-methyl-5a,6,7,8,9,10-hexahydro-5H-4-oxa-3,10a,11,13,14-pentaaza-6,9-methanonaphtho[1,8-ab]heptalen-2-yl)-5-methyl-4-(trifluoromethyl)aniline]
IC50 (KRAS G12D): 0.17 nM

Cc1c(F)c(N)cc(-c2nc3c4c(nc(OC[C@@]56CCCN5C[C@H](F)C6)nc4c2F)N2C[C@H]4CC[C@H](N4)[C@H]2[C@@H](C(F)(F)F)O3)c1C(F)(F)F [Compound 246, 2-Fluoro-5-((5S,5aS,6S,9R)-1-fluoro-12-(((2R,7aS)-2-fluorotetrahydro-1H-pyrrolizin-7a(5H)-yl)methoxy)-5-(trifluoromethyl)-5a,6,7,8,9,10-hexahydro-5H-oxa-3,10a,11,13,14-pentaaza-6,9-methanonaphtho[1,8-ab]heptalene-2-yl)-3-methyl-4-(trifluoromethyl)aniline]
IC50 (KRAS WT; read-out: KRas HTRF IC50): 1200 nM

Cc1cc(N)c(F)c(-c2nc3c4c(ncnc4c2Cl)N2C[C@H]4CC[C@H](N4)[C@H]2[C@H](C)O3)c1C(F)(F)F (atropisomer, axis not shown) [Compound 95, 3-((5S,5aS,6S,9R)-1-chloro-5-methyl-5a,6,7,8,9,10-hexahydro-5H-4-oxa-3,10a,11,13,14-pentaaza-6,9-methanonaphtho[1,8-ab]heptalen-2-yl)-2-fluoro-5-methyl-4-(trifluoromethyl)aniline]
IC50 (KRAS G12D): 26.6 nM
